Results taken from patent publication US7960369B2, “Receptor function regulator” (Takeda Pharmaceutical Company Limited, priority 2002, dated 2011).

Key:
[1] = molecular target: T1, human GPR40 (Homo sapiens, UniProt O14842); test: Effect of regulation of GPR40 receptor function (agonistic effect), intracellular calcium by FLIPR; assay type: cell-based; conditions: CHO cell line (No. 104) expressing human GPR40, fluorescence intensity at 30 sec after start of reaction
T1 construct: expressed in transfected cells; host or cells: CHO cell line CHO-hGPR40 No. 104 (pAKKO-111 vector)
T1 sequence (O14842 whole entry): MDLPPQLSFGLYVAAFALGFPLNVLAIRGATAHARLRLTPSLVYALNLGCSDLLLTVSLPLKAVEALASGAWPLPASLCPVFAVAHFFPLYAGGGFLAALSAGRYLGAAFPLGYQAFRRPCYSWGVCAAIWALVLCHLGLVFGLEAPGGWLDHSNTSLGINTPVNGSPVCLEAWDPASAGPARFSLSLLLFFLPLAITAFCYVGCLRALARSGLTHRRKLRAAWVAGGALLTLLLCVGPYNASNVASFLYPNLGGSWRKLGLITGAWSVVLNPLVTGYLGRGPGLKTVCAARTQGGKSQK
Method: CHO cell line (No. 104) made to express human GPR40 was diluted such that 3×10^4 cells/100 μL were contained, dispensed to a black walled 96-well plate (Costar) at 100 μL per well, and incubated overnight in a CO2 incubator. The changes in the intracellular calcium concentration were measured using FLIPR (Molecular Device). The method is described in the following.
Fluo-3AM (DOJIN) (50 μg) was dissolved in 21 μl DMSO (DOJIN), and an equal amount of 20% pluronic acid (Molecular Probes) was added and mixed, and the mixture was added to 10.6 ml of an assay buffer [prepared by adding 20 ml of 1M HEPES (pH 7.4) (DOJIN) to 1 L of HBSS (Invitrogen), and adding a mixed solution (10 ml) obtained by dissolving probenecid (Sigma) (710 mg) in 1N NaOH (5 ml) and adding and mixing with the above-mentioned HBSS/HEPES solution (5 ml)] supplemented with 105 μl of fetal calf serum to give a fluorescence dye solution. The medium in the cell plate was removed, a fluorescence dye solution was immediately dispensed at 100 μl per well, and incubated in a CO2 incubator for 1 hr to incorporate fluorescence dye into the cell. The incubated cells were washed with the above-mentioned assay buffer. The compound to be added to the cell was diluted with the assay buffer to each concentration and dispensed to a test sample plate. After the above-mentioned pretreatment, changes in the intracellular calcium concentration after addition of the compound was measured by FLIPR, and the agonistic effect was examined. EC50 value was calculated from a dose response curve based on the changes in the fluorescence intensity value at 30 sec after the start of the reaction.

[2] = molecular target: T2, human-derived GPR40 (Homo sapiens, UniProt O14842); test: Reactivity of fatty acid to human-derived GPR40, intracellular calcium by FLIPR in transfected CHO-K1 cells; assay type: cell-based; conditions: for activity in intracellular calcium ion mobilization assay using CHO cell expressing GPR40 (GPR40 agonistic activity): as stated in Experimental Example 6; for response (increase in intracellular calcium concentration) of CHO-K1 cell expressing the GPR40 receptor: added at 10^−5M-10^−6M, FLIPR, control-vector cells showed no response
T2 construct: expressed in transfected cells; host or cells: CHO-K1, transient transfection with lipofectamine
T2 sequence (O14842 whole entry): as above
Method: Unless specifically indicated, CHO-K1 cell line was cultured using Ham's F-12 medium (Invitrogen) containing 10% fetal calf serum (Invitrogen). The day before transfection, 4.5×10^5 per 10 cm^2 of cells were seeded, and incubated at 37° C. for not less than 15 hrs in a CO2 incubator adjusted to 5% CO2 concentration. The transfection was performed using a lipofectamine reagent (Invitrogen) and according to the reagent attached method. When a 6-well plate was used for a culture plate, transfection was performed in the following manner. First two 1.5 ml volume tubes were prepared, and 100 μl of Opti-MEM-I medium (Invitrogen) was dispensed. Then, […] of an expression vector was added to one tube and 6 μl of a lipofectamine reagent was added to the other tube. They were mixed and stood still at room temperature for 20 min. A mixed solution for transfection containing this solution and Opti-MEM-I medium (800 μl) was added to CHO-K1 cell previously washed with Opti-MEM-I medium, and incubated in a CO2 incubator for 6 hrs. The incubated cells were rinsed with PBS (Invitrogen), detached with 0.05% trypsin-EDTA solution (Invitrogen), recovered by centrifugation. The obtained cells were counted, diluted such that 5×10^4 cells were contained per 200 μl of the medium, dispensed to black walled 96-well plate (Costar) at 200 μl per well, incubated overnight in a CO2 incubator. Various test samples were added to CHO-K1 cells transiently expressing the receptor by the above-mentioned transfection step, and changes in the intracellular calcium concentration then was measured using FLIPR (Molecular Device). For measurement of changes in intracellular calcium concentration by FLIPR, the following pretreatment was applied. First, an assay buffer for adding fluorescence dye Fluo-3AM (DOJIN) to the cell, or washing the cell immediately before FLIPR assay was prepared. To a solution (hereinafter HBSS/HEPES solution) obtained by adding 20 ml of 1M HEPES (pH 7.4) (DOJIN) to 1000 ml of HBSS (Invitrogen) was added a solution (10 ml) obtained by dissolving probenecid (710 mg, Sigma) in 1N NaOH (5 ml) and adding and mixing with HBSS/HEPES solution (5 ml) and the obtained solution was used as an assay buffer. Then, Fluo-3AM (50 μg) was dissolved in 21 μl of DMSO (DOJIN), and an equal amount of 20% pluronic acid (Molecular Probes) was added. The mixture was added to an assay buffer (10.6 ml) supplemented with 105 μl of fetal calf serum to give a fluorescence dye solution. The medium of the CHO-KL cell after transfection treatment was removed, a fluorescence dye solution was immediately dispensed at 100 μl per well and incubated in a CO2 incubator for 1 hr to incorporate the fluorescence dye into the cell. The incubated cells were washed with the above-mentioned assay buffer and set on FLIPR. The test sample to be added to receptor expressing CHO-KL cell was prepared using the assay buffer and simultaneously set on FLIPR. After the above-mentioned pretreatment, changes in the intracellular calcium concentration after addition of various test samples were measured by FLIPR.

[3] = system: mouse pancreatic β cell line MIN6; test: Promotion of insulin secretion from MIN6 (insulin immunoassay); assay type: cell-based; conditions: MIN6, KRBH with 22 mM glucose, 90 min
Method: (§1) Mouse pancreatic β cell line MIN6 cultured in a flask was detached with PBS containing 2.5 mM EDTA, and seeded and incubated in a 96 well plate for 2 days. The medium used was obtained by adding 15% fetal bovine serum (ThermoTrace), […] 2-mercaptoethanol (Invitrogen), 20 mM HEPES pH 7.3, 100 U/ml penicillin and 100 μg/ml streptomycin to Dulbecco's Modified Eagle Medium (DMEM, Invitrogen) containing 4.5 g/l of glucose. The cells were washed twice with modified Krebs-Ringer bicarbonate buffer (KRBH, 116 mM NaCl, 4.7 mM KCl, 1.2 mM KH2PO4, 1.2 mM MgSO4, 2.5 mM CaCl2, 25 mM NaHCO3, 24 mM HEPES pH 7.3) and preincubated at 37° C. under 5% CO2 conditions for 30 min. Fatty acid diluted and prepared with a buffer obtained by adding 22 mM glucose to the above-mentioned KRBH was added to the cell after preincubation and the cells were incubated at 37° C. under 5% CO2 conditions for 90 min. After incubation, the cell supernatant was recovered and cryopreserved. The insulin content of the supernatant was measured using a commercially available insulin immunoassay kit (Amersham Pharmacia Biotech).
as §1, with “(KBH,” for “(KRBH,”, “The compound” for “Fatty acid”

[4] = system: siRNA-introduced MIN6 cell; test: Insulin secretion enhancing activity of fatty acid in siRNA-introduced MIN6; assay type: cell-based, mouse
Method: The expression amount of mouse GPR40-GFP was detected by the following enzyme immunoassay. The culture supernatant was discarded, washed with HBSS (Invitrogen), fixed with 0.01% glutaraldehyde (Wako Pure Chemical Industries, Ltd.) for 5 min., and blocked with PBS (TAKARA SHUZO) containing 2% BSA. 500-fold diluted anti-GFP monoclonal antibody 3E6 (NIPPON GENE CO., LTD.) was added and the cells were incubated at room temperature for 2 hrs., washed and 500-fold diluted HRP-labeled anti-mouse IgG antibody (ICN) was added, and the cells were incubated at room temperature for 2 hrs. After washing, TMB microwell peroxydase substrate (Funakoshi) was added and, after incubation for 30 min., sulfuric acid was added to stop the color developing reaction, and the absorbance at 450 nm was measured.
as §1
Insulin secretion enhancing activity in MIN6 cell, into which m40i103 was introduced using HVJ Envelope VECTOR KIT GenomONE based on the method of Experimental Example 5, was examined. The insulin secretion enhancing activity by fatty acid was examined by the method of Experimental Example 6.

| EC50 [1] [nM] | response (increase in intracellular calcium concentration) of CHO-K1 cell expressing the GPR40 receptor [2] | Compound | other results |
| --- | --- | --- | --- |
| 460 |  | O=C(O)CCc1ccc(OCCCc2ccccc2)cc1 [Reference Example 6, 4-(3-phenylpropoxy)benzenepropanoic acid] |  |
|  |  | CC/C=C\C/C=C\C/C=C\CCCCCCCC(=O)O [α-linolenic acid] | activity in intracellular calcium ion mobilization assay using CHO cell expressing GPR40 (GPR40 agonistic activity) [2]: remarkable activity; insulin secretion enhancing activity [3]: significant insulin secretion enhancing activity |
|  | specifically responds | CCCCC/C=C\C/C=C\C/C=C\C/C=C\CCCCCC(=O)O [adrenic acid] |  |
| 160 |  | O=C(O)CCc1ccc(OCc2ccc(OCc3ccccc3)cc2)cc1 [Example 6, 4-[[4-(phenylmethoxy)phenyl]methoxy]benzenepropanoic-acid] |  |
|  | specifically responds | CCCCCCCCCCCC(=O)O [lauric acid] |  |
| 1200 |  | CN(Cc1ccc(C(=O)Nc2ccc(CCC(=O)O)cc2)cc1)c1nc(-c2ccccc2)cs1 [Reference Example 15, 4-[[4-[[methyl(4-phenyl-2-thiazolyl)amino]methyl]benzoyl]amino]benzenepropanoic acid] |  |
|  |  | CCCC(=O)O [butyric acid] | activity in intracellular calcium ion mobilization assay using CHO cell expressing GPR40 (GPR40 agonistic activity) [2]: no GPR40 agonistic activity; insulin secretion enhancing activity [3]: did not show a significant insulin secretion enhancing activity |
| 130 |  | O=C(O)CCc1ccc(OCc2ccc(-c3ccccc3)cc2)cc1 [Example 7, 4-([1,1′-biphenyl]-4-ylmethoxy)benzenepropanoic acid] |  |
|  | specifically responds | CCCCCCCCC#CCC#CCC#CCCCC(=O)O [5.8.11-eicosatriynoic acid] |  |
| 320 |  | O=C(O)CCc1ccc(OCc2ccccc2)cc1 [Reference Example 2, 4-(phenylmethoxy)benzenepropanoic acid] |  |
| 170 |  | O=C(O)CCc1ccc(OC2CCCc3ccccc32)cc1 (stereo not shown) [Example 2, 4-[(1,2,3,4-tetrahydronaphthalen-1-yl)oxy]benzenepropanoic acid] |  |
|  | specifically responds | CCCCC/C=C\C/C=C\C/C=C\C/C=C\CCCC(=O)O [arachidonic acid] | activity in intracellular calcium ion mobilization assay using CHO cell expressing GPR40 (GPR40 agonistic activity) [2]: remarkable activity; insulin secretion enhancing activity [3]: significant insulin secretion enhancing activity |
|  |  | CCCCC/C=C\C/C=C\CCCCCCCC(=O)OC [methyl linolate] | activity in intracellular calcium ion mobilization assay using CHO cell expressing GPR40 (GPR40 agonistic activity) [2]: no GPR40 agonistic activity; insulin secretion enhancing activity [3]: did not show a significant insulin secretion enhancing activity |
|  | specifically responds | CCCCCC#CCC#CCC#CCC#CCCCC(=O)O [5.8.11.14-eicosatetraynoic acid] |  |
|  | specifically responds | CCCCC/C=C\C/C=C\CCCCCCCC(=O)O [linoleic acid] | insulin secretion enhancing activity of fatty acid ([4]; MIN6 into which GPR40 specific siRNA m40i103 was introduced): no longer showed insulin secretion enhancing activity; insulin secretion enhancing activity of fatty acid ([4]; MIN6 into which random sequence Scramble II duplex siRNA was introduced): retention of the insulin secretion enhancing activity; activity in intracellular calcium ion mobilization assay using CHO cell expressing GPR40 (GPR40 agonistic activity) [2]: remarkable activity; insulin secretion enhancing activity [3]: significant insulin secretion enhancing activity |

| Compound | EC50 [1] [nM] | response (increase in intracellular calcium concentration) of CHO-K1 cell expressing the GPR40 receptor [2] | other results |
| --- | --- | --- | --- |
| eicosatrienoic acid |  | specifically responds |  |
| CC(C)=CCCC(C)=CCCC(C)=CC(=O)O [farnesoic acid] |  | specifically responds |  |
| eicosadienoic acid |  | specifically responds |  |
| docosatrienoic acid |  | specifically responds |  |
